Key:
[1] = test system: SS RBC membrane ghost phosphopeptides; assay: Label-free quantitative phosphoproteomic analysis of SS RBC membrane ghosts; format: cell-based, human; conditions: recombinant ERK2 added to U0126-treated SS RBC ghosts
Method: (§1) Ghosted RBCs were spun at 14,000 rpm for 15 min at 4° C. to pellet membranes. Membrane pellets were washed with 1 mL 50 mM ammonium bicarbonate (pH 8.0) with vortexing and were then spun at 14,000 rpm for 30 min at 4° C. The supernatant was then removed and 500 μL of 50 mM ammonium bicarbonate with μL 0.2% acid-labile surfactant (ALS-1) in 50 mM ammonium bicarbonate (pH 8.0) was added. Samples were subjected to probe sonication three-times for 5 sec with cooling on ice between and insoluble material was cleared by centrifugation at 14,000 rpm for 30 mins at 4° C. Samples were normalized to approximately 2 μg/μl following a micro-Bradford assay (Pierce Bioscience), and were reduced with a final concentration of 10 mM dithiothreitol at 80° C. for 20 min. Samples were then alkylated with a final concentration of 20 mM iodoacetamide at room temperature for 45 min and trypsin was added to a final ratio of 1-to-50 (w/w) enzyme-to-protein and allowed to digest at 37° C. for 18 hr. To remove ALS-1, samples were acidified to pH 2.0 with neat TFA, incubated at 60° C. for 2 hrs and spun at 14,000 rpm to remove hydrolyzed ALS-1. Samples were either subjected directly to LC-MS analysis or subjected to a TiO2 based phosphopeptide enriched protocol.
(§2) To enrich for phosphorylated peptides prior to LC-MS analysis, either 1,125 μg and 970 μg of total digested protein from RBC ghosts co-incubated with recombinant active ERK2 experiments and experiments using epinephrine-treated cells, respectively, were brought to near dryness using vacuum centrifugation and then resuspended in 200 μL of 80% acetonitrile, 1% TFA, 50 mg/ml MassPrep Enhancer (pH 2.5) (Waters Corp. Milford, Mass.). Samples were loaded onto an in-house packed TiO2 spin column (Protea Biosciences) with a 562 μg or 485 μg binding capacity for active ERK2 treated or epinephrine treated experiments, respectively. Samples were washed twice with 200 μL 80% acetonitrile, 1% TFA, 50 mg/ml MassPrep Enhancer (pH 2.5) followed by two washes with 200 μL 80% acetonitrile, 1% TFA (pH 2.5). Retained peptides were eluted twice with 100 μL 20% acetonitrile, 5% aqueous ammonia (pH 10.0), acidified to pH 3 with neat formic acid and then brought to dryness using vacuum centrifugation. Prior to LC-MS analysis, each sample was resuspended in 20 μL 2% acetonitrile, 0.1% TFA, 25 mM citric acid (pH 2.5).
Chromatographic separation of phosphopeptide enriched or non-enriched samples was performed on a Waters NanoAquity UPLC equipped with a 1.7 μm BEH130 C1875 μm I.D.×250 mm reversed-phase column. The mobile phase consisted of (A) 0.1% formic acid in water and (B) 0.1% formic acid in acetonitrile. Five μL injections of each sample were trapped for 5 min on a 5 μm Symmetry C18 180 μm I.D.×20 mm column at 20 μl/min in 99.9% A. The analytical column was then switched in-line and the mobile phase was held for 5 min at 5% B before applying a linear elution gradient of 5% B to 40% B or 5% B to 30% B over 90 min at 300 nL/min for ERK2 treated experiments or epinephrine treated experiments, respectively. The analytical column was connected to fused silica PicoTip emitter (New Objective, Cambridge, Mass.) with a 10 μm tip orifice and coupled to the mass spectrometer through an electrospray interface.
(§3) MS data from each phosphopeptide enriched sample was acquired on a Thermo LTQ-Orbitrap XL mass spectrometer operating in positive-ion mode with an electrospray voltage of 2.0 kV with real-time lockmass correction on ambiant polycyclodimethylsiloxane (m/z 445.120025) enabled. The instrument was set to acquire a precursor MS scan from m/z 400-2000 with r=60,000 at m/z 400 and a target AGC setting of 1e6 ions. Each sample was analyzed four-times, one of which was used for additional qualitative identifications only and was not included in the quantitative analysis, with product ions above a threshold of 500 counts were acquired for the top 5 most intense ions in the linear ion trap. […]

[2] = test system: AA RBC membrane ghost phosphopeptides; assay: Label-free quantitative phosphoproteomic analysis of normal (AA) RBC membrane ghosts; format: cell-based, human
Method: as §1
as §2, with “Prior to LC-MS analysis, each sample was resuspended in 20 μL 2% acetonitrile, 0.1% TFA, 25 mM citric acid (pH 2.5).” left out
as §3, with “The instrument was set to acquire a precursor MS scan from m/z 400-2000 with r=60,000 at m/z 400 and a target AGC setting of 1e6 ions.” left out

[3] = test system: SS RBC adhesion to TNF-α-activated HUVECs; assay: Flow chamber adhesion of SS RBCs to TNF-α-activated HUVECs; format: cell-based, human; conditions: for effect on SS RBC adhesion to TNF-α-activated HUVECs: SS RBCs treated with MEK inhibitor (10 μM; RDEA119 1 and 10 μM)
Method: Cells were then washed three times with 5 ml PBS with Ca^2+ and Mg^2+. Prior to adhesion assays, washed treated SS RBCs were labeled with PKH 26 red fluorescent cell linker kit (Sigma-Aldrich, St. Louis, Mo.), following the manufacturer's instructions.
Graduated height flow chambers were used to quantify adhesion of RBCs to HUVECs substantially as previously described in detail.^4, 20 In some adhesion studies, slides coated with HUVECs were treated with human recombinant TNF-α at 10 ng/ml for 4 hours. Slides coated with HUVECs treated or not with TNF-α were then washed three times with 20 ml HBSS with 1.26 mM Ca^2+, 0.9 mM Mg^2+ (Gibco, Grand Island, N.Y.) warmed previously to 37° C. and then fit into a variable height flow chamber. The flow chamber was mounted on the stage of an inverted phase contrast microscope (Diaphot, Nikon Inc., Melville, N.Y.) connected to a thermoplate (Tokai Hit Co., Ltd., Japan) set at 37° C. Cells were observed using a video camera (RS photometrics,) attached to the microscope and connected to a Macintosh G4 computer. RBC (3 ml) suspended at 0.2% (vol/vol) in HBSS with Ca^2+, Mg^2+ were infused into the flow chamber and allowed to adhere to the slide for 10 min without flow. Before exposure to flow, a minimum of three fields at each of seven different locations along a line oriented normal to future flow were examined for the total number of fluorescent cells. Fluid flow (HBSS with Ca^2+, Mg^2+) was then started using a calibrated syringe pump. After exposure to flow, the fields were again examined and the number of adherent cells counted. The fraction of adherent cells was presented as (number of cells attached after exposure to flow)/(cells present per field before flow). The wall shear stress was calculated as:
[formula] τw=wall shear stress (dyne/cm^2); Q=volumetric flow rate (cm^3/s); μ is media viscosity, w is the width of the flow channel, and H(x) is the height of the flow chamber as a function of position along the microscope slide. Several investigators have shown that blood flow in small vessels may be continuous, with shear stresses of 1-2 dynes/cm^2, or flow may be intermittent. Our data were obtained using both intermittent and continuous flow conditions.

[4] = test system: PMN adhesion to non-activated HUVECs; assay: Adhesion to HUVECs of PMNs co-incubated with epinephrine-stimulated SS RBCs; format: cell-based, human; conditions: SS RBCs pre-incubated with inhibitor for 1 hour, then 20 nM epinephrine 1 min
Method: The cells were then washed prior to admixture with fluorescently-labeled native polymorphonuclear cells (PMNs) obtained from healthy donors at a RBC:PMN ratio of 10:1. After co-incubation for 30 minutes at 37° C., cells mixtures were assayed for their ability to adhere to non-activated HUVECs. […] Downregulation of RBC adhesion receptor activity by targeting ERK may not only decrease SS RBC adhesion to the endothelium but also reduce RBC-stimulated leukocyte activation.

[5] = test system: ERK1/2 phosphorylation in SS RBCs; assay: ERK1/2 phosphorylation in SS RBCs, Western blot (phosphoERK normalized to total ERK); format: cell-based, human
Method: Aliquots of packed RBCs were treated with various reagents to affect cAMP signaling or protein phosphorylation. […] Treated RBCs were then washed 5 times with 4 ml PBS with Ca^2+ and Mg^2+. Normal RBCs were used as controls. Prior to adhesion assays, treated RBCs were labeled with PKH 26 red fluorescent cell linker kit (Sigma), following the manufacturer's instructions.
Treated packed RBCs were lysed with hypotonic buffer (5 mM Na2HPO4+1 mM EDTA+0.1% NaN3, pH 8) containing 2 mM phenylmethylsulphonylfluoride (PMSF, Sigma), phosphatase inhibitor cocktail (Sigma) and protease inhibitor cocktail (Sigma). Protein separation by polyacrylamide gel electrophoresis using equal amounts of total RBC membrane ghost proteins per lane, after correcting total protein measurements for residual hemoglobin content, and Western blot^19 using the appropriate Ab were then performed. Mouse 3T3/A31 fibroblast lysate was used as a ERK1/2 positive control for immunoblots. For total ERK1/2, membranes blotted with anti-phosphoERK Ab were stripped and reexposed to Western blotting using anti-ERK1/2 Ab. Bands were analyzed densitometrically using ImageJ software downloaded from the NIH website. PhosphoERK1/2 data were normalized according to total ERK1/2 and are presented as fold change in ERK phosphorylation.

[6] = test system: human SS RBC adhesion in inflamed venules and vaso-occlusion; assay: Intravital microscopy in TNF-α-treated nude mice infused with human SS RBCs treated ex vivo with MEK inhibitor; conditions: for percentage of venular length occupied by treated SS RBCs: compared to sham
Source text: For some in vivo adhesion studies, packed SS RBCs were fluorescently labeled with the dye Dil (Molecular Probes Inc., Eugene, Oreg.), following the manufacturer's instructions. […] Cell morphology was checked by microscopy.

[7] = test system: ICAM-4 (LW) phosphorylation; assay: 32P labeling, ICAM-4 immunoprecipitation and detection of phosphorylation in SS RBCs; format: cell-based, human; conditions: SS RBCs preincubated with inhibitor
Method: Cells were then washed 4 times. ICAM-4 protein immunoprecipitation, and total and phospho-ICAM-4 detection were performed as previously described in detail.^4 To further confirm that the immunoprecipitates were specific for ICAM-4, anti-ICAM-4 mAb and the negative control immunoglobulin P3 were used to immunoprecipitate ICAM-4 from non-radiolabeled SS RBCs incubated in the presence or absence of epinephrine. Blots were then immunostained with anti-ICAM-4 mAb.

[8] = SS RBCs treated ex vivo with 10 μM inhibitor for 1 hour, n=5

Q: How did the “change of Ser540/Ser542 doubly phosphorylated peptide within protein 4.1” value [1] turn out when “ERK2: commercial recombinant active human ERK2 (Sigma) added to RBC membrane ghosts” was run?
A: Its value is “+1.7 fold”.

Q: And the “increase of Ser540/Ser542 doubly phosphorylated peptide within protein 4.1” value ([2]; recombinant ERK2 added to U0126-treated AA RBC ghosts)?
A: The value was 1.7 fold.

Q: What about the “increase of Ser540/Ser542 doubly phosphorylated peptide within protein 4.1” value ([2]; recombinant ERK2 added to untreated AA RBC ghosts) of the same compound?
A: The value was 2.1 fold.

Q: How did the “effect on SS RBC adhesion to TNF-α-activated HUVECs” value [3] turn out when Cn1cnc2c(F)c(Nc3ccc(Br)cc3Cl)c(C(=O)NOCCO)cc21 [AZD6244] was run?
A: Its value is “significantly abolished”.

Q: What about the “ability of epinephrine-activated SS RBCs to promote neutrophil (PMN) adhesion to HUVECs” value [4] of the same compound?
A: Its value is “significantly decreased”.

Q: COc1c(C=O)c(O)cc2c1C(=O)c1ccccc1C2=O [Damnacanthal] was tested. Which “effect on PTx-induced ERK phosphorylation” value ([5]; SS RBCs, 2 μg/ml PTx) did it give?
A: The value was “did not abrogate”.

Q: Which “effect on SS RBC adhesion to TNF-α-activated HUVECs” value [3] does the source give for COc1cc(F)c(F)c(Nc2ccc(I)cc2F)c1NS(=O)(=O)C1(C[C@H](O)CO)CC1 [RDEA119] here?
A: The value was “significantly abolished”.

Q: And the “human SS RBC adhesion in inflamed venules” value [6, 8]?
A: Its value is “dramatically decreased”.

Q: What about the vessel obstruction [6, 8] of the same compound?
A: Its vessel obstruction is “prevented vessel obstruction”.

Q: What about the “percentage of venular length occupied by treated SS RBCs” value ([6]; vessels 25 μm in diameter) of the same compound?
A: The value was “significantly decreased”.

Q: What about the “percentage of venular length occupied by treated SS RBCs” value ([6]; vessels with a diameter >25 μm) of the same compound?
A: Its value is “significantly decreased”.

Q: What about the “ability of epinephrine-activated SS RBCs to promote neutrophil (PMN) adhesion to HUVECs” value [4] of the same compound?
A: The value was “significantly decreased”.

Q: Which “increase in SS RBC adhesion vs non-activated HUVECs” value ([3]; HUVECs treated with TNF-α, shear stress 2 dynes/cm^2, intermittent flow) does the source give for TNF-α here?
A: The value was 2.6 fold.

Q: For Pertussis toxin [PTx], which “increase in basal phosphorylation of ERK1/2” value ([5]; SS RBCs, 1 μg/ml PTx alone) is on record?
A: Its value is 2.04±0.1 fold.

Q: What about the “increase in basal phosphorylation of ERK1/2” value ([5]; SS RBCs, 2 μg/ml PTx alone) of the same compound?
A: Its value is 2.53±0.11 fold.

Q: Which results are given for CC(=O)Nc1cccc(-n2c(=O)n(C3CC3)c(=O)c3c(Nc4ccc(I)cc4F)n(C)c(=O)c(C)c32)c1 [GSK1120212]?
A: effect on SS RBC adhesion to TNF-α-activated HUVECs [3]: significantly abolished; ability of epinephrine-activated SS RBCs to promote neutrophil (PMN) adhesion to HUVECs [4]: significantly decreased

Q: How did the “effect on epinephrine-induced ERK1/2 phosphorylation” value ([5]; SS RBCs pre-incubated with inhibitor, then 20 nM epinephrine 1 min) turn out when “14-22 amide: PKA-specific inhibitor (PKAI)” was run?
A: The value was “completely blocked”.

Q: What about the “effect on basal ERK phosphorylation” value ([5]; SS RBCs, 30 nM) of the same compound?
A: Its value is “did not significantly decrease”.

Q: And the “effect on combined effect of epinephrine and SPI on ICAM-4 phosphorylation” value [7]?
A: The value was “significantly decreased”.
